Key:
RAS G12D = biological target: T1, RAS G12D (Homo sapiens, UniProt P01116, G12D); assay: RAS G12D degradation activity, Cell ELISA, AsPC-1; format: cell-based; conditions: AsPC-1 cells, 24 hours; read-out: DC50 (RAS G12D 50% degradation value)
T1 construct: host or cells: AsPC-1 human pancreatic cancer cells
Protocol: Test Example 1-2: Evaluation of RAS G12D Degradation Activity on Human KRAS G12D Mutant-Positive Pancreatic Cancer Line AsPC-1
The RAS G12D degradation activities of subject compounds were evaluated in the same manner as in Test Example 1-1 by measuring the expression levels of RAS G12D by a Cell ELISA method.
AsPC-1 cells (ATCC, CRL-1682) were seeded at 36 μL per well on a 384-well plate to give 2.0×10^4 cells per well. As for the cell culture conditions, RPMI-1640 medium (from Sigma-Aldrich) containing 10% fetal bovine serum was used in the presence of 5% CO2 at 37° C.
The next day, the subject compounds (10 points having final concentrations in the range of 3 μM to 0.1 nM) and DMSO, which was the solvent for the subject compounds, as a negative control were diluted 100-fold with a fresh medium and were each added at 4 μL per well, followed by culturing for 24 hours.
The next day, the procedures from the immobilization of the cells to before the addition of the blocking solution were performed by the same methods as in Test Example 1-1. A blocking solution (Intercept Blocking Buffer; from LI-COR Biosciences) was added at 20 μL per well. After allowing the plate to stand for 30 minutes at room temperature, the supernatant was removed by centrifugation. A solution obtained by diluting an anti-R-actin antibody (1,000-fold dilution) with the blocking solution was added to the wells of the positive control as a primary antibody, and a solution obtained by diluting an anti-Ras (G12D Mutant Specific) antibody (Ras (G12D Mutant Specific) (D8H7) Rabbit mAb; from Cell Signaling Technology; 1,000-fold dilution) and an anti-3-actin antibody (1,000-fold dilution) with the blocking solution was added to the other wells as primary antibodies, each at 15 μL per well. The plate was allowed to stand overnight at 4° C.
The next day, the supernatant was removed by centrifugation, and the plate was washed with PBS. The supernatant was removed by centrifugation, and a solution obtained by diluting an anti-rabbit IgG antibody and an anti-mouse IgG antibody 1,000-fold with the blocking solution was added at 15 μL per well as secondary antibodies. After allowing the plate to stand at room temperature for an hour, the supernatant was removed by centrifugation, and the plate was washed with PBS. After removing the supernatant, the plate was dried as it was with air at room temperature for two hours or more, and the 700-nm and 800-nm fluorescent signals were measured with Aerius.
With the RAS G12D signaling value at the time of addition of DMSO corrected with the signaling value of β-actin taken as 0% and with the RAS G12D signaling value under the conditions of staining with the anti-β-actin antibody alone taken as 100%, the RAS G12D degradation rates were calculated. The 50% degradation values (DC50) were calculated by Sigmoid-Emax model nonlinear regression analysis.

PA-TU-8902 xenograft = assay: Anti-tumor activity in PA-TU-8902 xenograft mouse; format: in vivo; conditions: 30 mg/kg, tail vein, twice a week for two weeks, male nude mice
Protocol: Test Example 4: Evaluation of Anti-Tumor Activity in Human KRAS G12V Mutant-Positive Pancreatic Cancer Line PA-TU-8902 or Human KRAS G12D Mutant-Positive Pancreatic Cancer Line PK-59 Xenograft Mouse
PA-TU-8902 cells or PK-59 cells (RIKEN BRC, RCB1901) were cultured using DMEM medium or RPMI-1640 medium containing 10% fetal bovine serum, respectively, in the presence of 5% CO2 at 37° C. The PA-TU-8902 cells or the PK-59 cells were collected and suspended in PBS, and two equivalents of VitroGel Hydrogel Matrix (from TheWell Bioscience) was added. A cell suspension prepared at 1.0-2.0×10^7 cells/mL was subcutaneously inoculated in a volume of 100 μL in 4- to 6-week-old male nude mice (BALB/c-nu (nu/nu), from The Jackson Laboratory Japan, Inc.). After about two weeks of the inoculation, the mice were divided into groups so that all the groups had approximately the same tumor volume and body weight, and administration of a subject compound was started on the next day. The test was conducted for five mice for each of a solvent group and a subject compound administration group. The solvent used was a solvent containing ethanol (from FUJIFILM Wako), an aqueous (2-hydroxypropyl)-β-cyclodextrin (HP-PCD) solution (from ROQUETTE), HCO-40 (from Nikko Chemicals Co., Ltd.) dissolved in a 5% glucose solution (from Otsuka Pharmaceutical) at a ratio of 4%, 0.5%, and 9%, respectively. The compound was dissolved using the solvent. The subject compound dissolved in the solvent or the solvent was administered into tail vein. The administration was performed once or twice a week for two weeks. The tumor size and the body weight were measured twice a week. The tumor volume was calculated by using the following formula.
[Tumor volume (mm^3)]=[Major axis of tumor (mm)]×[Minor axis of tumor (mm)]^2×0.5
The tumor growth inhibition (%) by the subject compound was calculated with the tumor volume of the subject compound administration group on the previous day of the start of the administration taken as 100% inhibition and the tumor volume of the solvent group of the day of the final measurement taken as 0% inhibition.

MIA PaCa-2 cells = assay: Non-anchorage-dependent cell growth inhibition (spheroid 3D culture), MIA PaCa-2; format: cell-based; conditions: Homo sapiens, MIA PaCa-2, 144 h; KRAS G12C mutant-positive, 3D spheroid, six days, CellTiter-Glo 2.0; read-out: MIA PaCa-2 IC50
Protocol: Test Example 3: Evaluation of Non-Anchorage-Dependent Cell Growth Inhibitory Activity on Human KRAS G12V Mutant-Positive Pancreatic Cancer Line PA-TU-8902, Human KRAS G12D Mutant-Positive Pancreatic Cancer Line AsPC-1 or Human KRAS G12C Mutant-Positive Pancreatic Cancer Line MIA PaCa-2
The non-anchorage-dependent cell growth inhibitory activities of subject compounds were evaluated by spheroid 3D cell culture.
PA-TU-8902 cells, AsPC-1 cells or MIA PaCa-2 cells (RIKEN BRC, RCB2094) were seeded at 36 µL/well on a low-cell-adhesive round bottom 384-well plate (Prime Surface: from Sumitomo Bakelite) to give 5×10^2 cells per well. The PA-TU-8902 cells were under the same conditions as in Test Example 1-1, and the AsPC-1 cells were under the same conditions as in Test Example 1-2. For the MIA PaCa-2 cells, RPMI-1640 medium containing 10% fetal bovine serum was used in the presence of 5% CO2 at 37° C.
The next day, the subject compounds (6-9 points having final concentrations in the range of 3 μM to 0.3 nM) and DMSO, which was the solvent for the subject compounds, as a negative control were diluted 100-fold with a fresh medium and were each added at 4 μL per well. After culturing in the presence of 5% CO2 at 37° C. for six days, CellTiter-Glo 2.0 (from Promega) was added at 20 μL per well. After stirring with a plate mixer (from FINEPCR) at normal temperature for an hour, the luminescent signals were measured with ARVO X3 (from PerkinElmer).
With the signaling value in treatment with DMSO taken as 0% inhibition and with the signaling value in the medium alone without cells taken as 100% inhibition, the 50% inhibition values (IC50) were calculated by Sigmoid-Emax model nonlinear regression analysis.

T1 sequence (P01116 1-188 isoform P01116-2 G12D): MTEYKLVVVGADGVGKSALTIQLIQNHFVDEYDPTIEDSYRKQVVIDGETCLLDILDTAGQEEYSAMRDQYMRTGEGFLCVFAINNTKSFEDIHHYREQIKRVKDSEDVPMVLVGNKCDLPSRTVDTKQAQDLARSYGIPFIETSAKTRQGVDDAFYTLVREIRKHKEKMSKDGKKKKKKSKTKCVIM

Row | SMILES | DC50 (RAS G12D) [nM] | IC50 (MIA PaCa-2 cells) [nM] | Anti-tumor activity at final measurement (PA-TU-8902 xenograft mouse), tumor growth inhibition (PA-TU-8902 xenograft) [% inhibition]
1 | CO[C@@H](C)COc1cc(OC2CN(C(=O)N3CC(CN(C)C)C3)C2)c2cc(C3CC3)c(-c3c(C)c(F)cc4[nH]ncc34)c(OCc3ccc(-c4cn([C@H](C(=O)N5C[C@H](O)C[C@H]5C(=O)N[C@@H](CO)c5ccc(-n6cncn6)cc5)C(C)C)nn4)cc3)c2n1 (atropisomer, axis not shown; (M)) [Example 5, (4R)-1-[(2S)-2-(4-{4-[({(7M)-6-cyclopropyl-4-[(1-{3-[(dimethylamino)methyl]azetidine-1-carbonyl}azetidin-3-yl)oxy]-7-(6-fluoro-5-methyl-1H-indazol-4-yl)-2-[(2S)-2-methoxypropoxy]quinolin-8-yl}oxy)methyl]phenyl}-1H-1,2,3-triazol-1-yl)-3-methylbutanoyl]-4-hydroxy-N-{(1R)-2-hydroxy-1-[4-(1H-1,2,4-triazol-1-yl)phenyl]ethyl}-L-prolinamide] | 6 | 5 | 56
2 | CO[C@@H](C)COc1nc(N2CCOCC2)c2cc(C3CC3)c(-c3c(C)c(F)cc4[nH]ncc34)c(OCc3ccc(-c4cn([C@H](C(=O)N5C[C@H](O)C[C@H]5C(=O)N[C@@H](CO)c5ccc(-c6scnc6C)cc5)C(C)C)nn4)cc3)c2n1 (atropisomer, axis not shown) [Example 21] | 8 | 11 | 
3 | Cc1ncsc1-c1ccc([C@H](CO)NC(=O)[C@@H]2C[C@@H](O)CN2C(=O)[C@H](C(C)C)n2cc(-c3ccc(COc4c(-c5c(C)c(F)cc6[nH]ncc56)c(C5CC5)cc5c(N6CC[C@H]6C(N)=O)nc(OC6CCOCC6)nc45)cc3)nn2)cc1 [Example 35] | 16 | 5 | 
4 | CNCCNC(=O)N1CC(Oc2nc(OC[C@H](C)OC)nc3c(OCc4ccc(-c5cn([C@H](C(=O)N6C[C@H](O)C[C@H]6C(=O)N[C@@H](CO)c6ccc(-c7scnc7C)cc6)C(C)C)nn5)cc4)c(-c4c(C)c(F)cc5[nH]ncc45)c(C4CC4)cc23)C1 (atropisomer, axis not shown) [Example 18] | 26 | 26 | 

The next molecules have a lower DC50 (RAS G12D) than those just listed; values first:

Row | DC50 (RAS G12D) [nM] | IC50 (MIA PaCa-2 cells) [nM] | SMILES | Anti-tumor activity at final measurement (PA-TU-8902 xenograft mouse), tumor growth inhibition (PA-TU-8902 xenograft) [% inhibition]
5 | 5 | 11 | CO[C@@H](C)COc1nc(NC2CN(C(=O)O[C@H]3C[C@@H](N(C)C)C3)C2)c2cc(C3CC3)c(-c3c(C)c(F)cc4[nH]ncc34)c(OCc3ccc(-c4cn([C@H](C(=O)N5C[C@H](O)C[C@H]5C(=O)N[C@@H](CO)c5ccc(-c6ocnc6C)cc5)C(C)C)nn4)cc3)c2n1 (atropisomer, axis not shown; (M)) [Example 1, (1s,3R)-3-(dimethylamino)cyclobutyl 3-({(7M)-6-cyclopropyl-7-(6-fluoro-5-methyl-1H-indazol-4-yl)-8-{[4-(1-{(2S)-1-[(2S,4R)-4-hydroxy-2-({(1R)-2-hydroxy-1-[4-(4-methyl-1,3-oxazol-5-yl)phenyl]ethyl}carbamoyl)pyrrolidin-1-yl]-3-methyl-1-oxobutan-2-yl}-1H-1,2,3-triazol-4-yl)phenyl]methoxy}-2-[(2S)-2-methoxypropoxy]quinazolin-4-yl}amino)azetidine-1-carboxylate] | 69
6 | 5 | 7 | CO[C@@H](C)COc1cc(OC2CN(C(=O)N3CC(CN(C)C)C3)C2)c2cc(C3CC3)c(-c3c(C)c(F)cc4[nH]ncc34)c(OCc3ccc(-c4cn([C@H](C(=O)N5C[C@H](O)C[C@H]5C(=O)N[C@@H](CO)c5ccc(-c6ocnc6C)cc5)C(C)C)nn4)cc3)c2n1 (atropisomer, axis not shown; (M)) [Example 6, (4R)-1-[(2S)-2-(4-{4-[({(7M)-6-cyclopropyl-4-[(1-{3-[(dimethylamino)methyl]azetidine-1-carbonyl}azetidin-3-yl)oxy]-7-(6-fluoro-5-methyl-1H-indazol-4-yl)-2-[(2S)-2-methoxypropoxy]quinolin-8-yl}oxy)methyl]phenyl}-1H-1,2,3-triazol-1-yl)-3-methylbutanoyl]-4-hydroxy-N-{(1R)-2-hydroxy-1-[4-(4-methyl-1,3-oxazol-5-yl)phenyl]ethyl}-L-prolinamide] | 
7 | 5 | 9 | COC(C)(C)COc1cc(OC2CN(C(=O)N3CC(CN(C)C)C3)C2)c2cc(C3CC3)c(-c3c(C)c(F)cc4[nH]ncc34)c(OCc3ccc(-c4cn([C@H](C(=O)N5C[C@H](O)C[C@H]5C(=O)N[C@@H](CO)c5ccc(-n6cncn6)cc5)C(C)C)nn4)cc3)c2n1 (atropisomer, axis not shown) [Example 9] | 
8 | 2 | 10 | CO[C@@H](C)COc1cc(OC2CN(C(=O)N3CC(CN(C)C)C3)C2)c2cc(C3CC3)c(-c3c(C)c(F)cc4[nH]ncc34)c(OCc3ccc(-c4cn([C@H](C(=O)N5C[C@H](O)C[C@H]5C(=O)N[C@@H](CO)c5ccc(-c6scnc6C)cc5)C(C)C)nn4)cc3)c2n1 (atropisomer, axis not shown; (M)) [Example 14, (4R)-1-[(2S)-2-(4-{4-[({(7M)-6-cyclopropyl-4-[(1-{3-[(dimethylamino)methyl]azetidine-1-carbonyl}azetidin-3-yl)oxy]-7-(6-fluoro-5-methyl-1H-indazol-4-yl)-2-[(2S)-2-methoxypropoxy]quinolin-8-yl}oxy)methyl]phenyl}-1H-1,2,3-triazol-1-yl)-3-methylbutanoyl]-4-hydroxy-N-{(1R)-2-hydroxy-1-[4-(4-methyl-1,3-thiazol-5-yl)phenyl]ethyl}-L-prolinamide] | 

From patent US20260049072A1, “HETEROCYCLIC COMPOUND FOR INDUCING DEGRADATION OF MUTANT KRAS PROTEIN” (Astellas Pharma Inc., priority 2022, published 2026)
